The target in one assay is JAK1 (Homo sapiens, UniProt P23458). Put plainly: ADP-Glo kinase inhibition assay, JAK1.
The next assay addresses JAK2 (Homo sapiens, UniProt O60674). Put plainly: ADP-Glo kinase inhibition assay, JAK2.
A further assay has as its target JAK3 (Homo sapiens, UniProt P52333). Put plainly: ADP-Glo kinase inhibition assay, JAK3.
In another assay the target is T1, TYK2 (Homo sapiens, UniProt P29597).
T1 sequence (P29597 897-1187 limits assumed): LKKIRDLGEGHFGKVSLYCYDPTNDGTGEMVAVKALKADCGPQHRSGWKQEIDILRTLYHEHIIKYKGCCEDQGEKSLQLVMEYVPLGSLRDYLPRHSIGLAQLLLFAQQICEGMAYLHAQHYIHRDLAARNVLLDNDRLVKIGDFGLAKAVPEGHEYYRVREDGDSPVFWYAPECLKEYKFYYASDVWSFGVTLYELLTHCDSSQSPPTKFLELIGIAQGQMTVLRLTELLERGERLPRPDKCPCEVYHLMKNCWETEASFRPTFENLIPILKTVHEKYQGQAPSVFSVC
Put plainly: ADP-Glo kinase inhibition assay, TYK2.

The test system of assay [1] is itching caused by allergic dermatitis. The following applies: dogs, cited from earlier work.

JAK1, sequence (P23458 850-1154 limits assumed): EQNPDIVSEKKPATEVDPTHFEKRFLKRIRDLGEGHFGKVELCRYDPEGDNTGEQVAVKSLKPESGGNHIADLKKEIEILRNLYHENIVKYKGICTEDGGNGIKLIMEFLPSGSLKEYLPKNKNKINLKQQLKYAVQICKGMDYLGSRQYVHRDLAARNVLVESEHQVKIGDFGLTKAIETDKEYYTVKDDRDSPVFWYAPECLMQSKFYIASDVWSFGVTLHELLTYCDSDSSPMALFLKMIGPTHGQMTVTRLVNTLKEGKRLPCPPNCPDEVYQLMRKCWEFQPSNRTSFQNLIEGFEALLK
JAK2, sequence (O60674 826-1132 limits assumed): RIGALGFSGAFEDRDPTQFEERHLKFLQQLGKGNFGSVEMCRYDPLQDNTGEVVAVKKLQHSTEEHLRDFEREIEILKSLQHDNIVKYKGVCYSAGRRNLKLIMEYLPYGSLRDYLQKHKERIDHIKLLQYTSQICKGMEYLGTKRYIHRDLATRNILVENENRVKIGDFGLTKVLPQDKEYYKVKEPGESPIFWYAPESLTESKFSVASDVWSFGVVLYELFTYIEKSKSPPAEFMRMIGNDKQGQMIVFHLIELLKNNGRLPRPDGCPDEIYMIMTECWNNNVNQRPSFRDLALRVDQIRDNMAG
JAK3, sequence (P52333 795-1124 limits assumed): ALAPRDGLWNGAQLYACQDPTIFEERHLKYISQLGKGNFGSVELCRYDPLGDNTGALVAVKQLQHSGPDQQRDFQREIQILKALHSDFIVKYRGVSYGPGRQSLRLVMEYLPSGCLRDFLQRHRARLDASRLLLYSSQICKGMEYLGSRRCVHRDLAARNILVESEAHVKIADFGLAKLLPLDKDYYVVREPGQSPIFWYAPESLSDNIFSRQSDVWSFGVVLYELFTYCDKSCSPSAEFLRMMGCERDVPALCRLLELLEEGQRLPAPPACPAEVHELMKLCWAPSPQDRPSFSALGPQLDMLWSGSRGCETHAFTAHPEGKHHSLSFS
From the text for JAK1: (§1) A drug screening system based on kinases JAK1, JAK2, JAK3, and TYK2 was used to detect the inhibitory ability of small molecule compounds on kinase activity. A kinase undergoes an enzymatic reaction with its substrates IRS1, IGF1Rtide, and Poly (4:1 Glu, Tyr), consuming ATP to produce ADP, wherein the ADP-Glo reagent and luminescence method were used to detect the amount of the product to reflect the activity of the kinase.
(§2) For TYK2 inhibition activity testing, the starting concentration was 10 μM with 1:4 serial dilution. Test compounds were used at a starting concentration of 0.5 μM with 1:4 serial dilution.
(§3) Transfer 4 μL of ADP-Glo reagent to the 384-well plate, which was centrifuged at 1000 rpm for 1 minute, and incubated at 25° C. for 40 minutes.
(§4) Transfer 8 μL of the test solution to the 384-well plate, which was centrifuged at 1000 rpm for 1 minute, and incubated at 25° C. for 40 minutes.
(§5) Read luminescence signals using a multimode microplate reader.
(§6) [formula] • Negative Control: DMSO • Positive Control: Tofacitinib
(§7) The following nonlinear regression equation was used to determine the compound's IC50(half-maximal inhibitory concentration). Data analysis was performed using GraphPad Prism 7.0 software.
(§8) [formula] • X: Logarithm of compound concentration; and Y: Inhibition rate (% Inhibition)
From the text for JAK2: as §1, §2, §3, §4, §5, §6, §7, §8
From the text for JAK3: as §1, §2, §3, §4, §5, §6, §7, §8
From the text for TYK2: as §1, §2, §3, §4, §5, §6, §7, §8

In the case of `[2H]C([2H])([2H])c1cc(O)c(F)cc1-c1ccc2c(-c3nc4c([nH]3)CN(C(=O)N3CC[C@@H](O)C3)C4)n[nH]c2c1` [Compound 8, (R)-(2-(6-(5-Fluoro-4-hydroxy-2-(methyl-d3)phenyl)-1H-indazol-3-yl)-4,6-dihydropyrrolo[3,4-d]imidazole-5(1H)-yl)(3-hydroxypyrrolidin-1-yl)ketone], the IC50 (in general, the midpoint of a concentration-inhibition curve) is 0.045 nM on JAK1, 0.004 nM on JAK2, 0.16 nM against JAK3 and 0.19 nM against TYK2.

For `[2H]C([2H])([2H])c1cc(O)c(F)cc1-c1ccc2c(-c3nc4c([nH]3)CN(C(=O)NC)C4)n[nH]c2c1` [Compound 13], the IC50 on JAK1 amounted to 0.077 nM; against JAK2, 0.012 nM; at JAK3, 0.22 nM; against TYK2, 0.43 nM.

As for `CNS(=O)(=O)C[C@H]1CC[C@H](N(C)c2ncnc3[nH]ccc23)CC1` [Olatinib], in assay [1] (on the 7th day), the “experimental animals that alleviated the itching response by more than 50%” value was “more than 70%”. In assay [1] (oral 0.4-0.6 mg/kg twice a day), the “time to relieve itching” value is no more than 24 h.

Take `[2H]C([2H])([2H])c1cc(O)c(F)cc1-c1ccc2c(-c3nc4c([nH]3)CN(C(=O)N(C)C)C4)n[nH]c2c1` [Compound 9, 2-(6-(5-Fluoro-4-hydroxy-2-(methyl-d3)phenyl)-1H-indazol-3-yl)-N,N-dimethyl-4,6-dihydropyrrolo[3,4-d]imidazole-5(1H)-carboxamide]: the IC50 came out at 0.071 nM against JAK1, 0.008 nM on JAK2, 0.32 nM on JAK3 and 0.43 nM against TYK2.

For the compound `[2H]C([2H])([2H])c1cc(O)c(F)cc1-c1ccc2c(-c3nc4c([nH]3)CN(C(=O)NC[C@H](C)O)C4)n[nH]c2c1` [Compound 4, (S)-2-(6-(5-Fluoro-4-hydroxy-2-(methyl-d3)phenyl)-1H-indazol-3-yl)-N-(2-hydroxypropyl)-4,6-dihydropyrrolo[3,4-d]imidazole-5(1H)-carboxamide], the half-inhibitory concentration (IC50) was 0.1 nM against JAK1, 0.015 nM against JAK2, 0.26 nM at JAK3 and 1 nM against TYK2.

As to `[2H]C([2H])([2H])c1cc(O)c(F)cc1-c1ccc2c(-c3nc4c([nH]3)CN(CC(C)O)C4)n[nH]c2c1` (stereo in doubt) [Compound 28], the IC50 against JAK1 was 0.43 nM; on JAK2 it was 0.05 nM; against JAK3 it was 1 nM; on TYK2 it was 6.4 nM.

For the compound `[2H]C([2H])([2H])c1cc(O)c(F)cc1-c1ccc2c(-c3nc4c([nH]3)CN(C(=O)NCC(C)O)C4)n[nH]c2c1` (stereo not shown) [Compound 5, 2-(6-(5-Fluoro-4-hydroxy-2-(methyl-d3)phenyl)-1H-indazol-3-yl)-N-(2-hydroxypropyl)-4,6-dihydro-pyrrolo[3,4-d]imidazole-5(1H)-carboxamide], the IC50 against JAK1 was found to be 0.2 nM; against JAK2, 0.01 nM; against JAK3, 0.3 nM; on TYK2, 1.6 nM.

`[2H]C([2H])([2H])c1cc(O)c(F)cc1-c1ccc2c(-c3nc4c([nH]3)CN(C)C4)n[nH]c2c1` [Compound 12, 2-Fluoro-5-(methyl-d3)-4-(3-(5-methyl-1,4,5,6-tetrahydropyrrolo[3,4-d]imidazol-2-yl)-1H-indazol-6-yl)phenol] came in with an IC50 against JAK1 of 1.8 nM.

Turning to `[2H]C([2H])([2H])C([2H])([2H])c1cc(O)c(F)cc1-c1ccc2c(-c3nc4c([nH]3)CN(C(=O)N3CC[C@@H](O)C3)C4)n[nH]c2c1` [Compound 35], the IC50 on JAK1 amounted to 0.0075 nM; against JAK2, 0.0088 nM; at JAK3, 0.095 nM; at TYK2 it was 0.085 nM.

The compound `[2H]C([2H])([2H])c1cc(O)c(F)cc1-c1ccc2c(-c3nc4c([nH]3)CN(C(=O)OC)C4)n[nH]c2c1` [Compound 18] yielded an IC50 against JAK2 of 0.61 nM.

On to `[2H]C([2H])([2H])c1cc(O)c(F)cc1-c1ccc2c(-c3nc4c([nH]3)CN(C(=O)N3CCC(O)CC3)C4)n[nH]c2c1` [Compound 19], for which the IC50 at JAK1 was found to be 0.032 nM; against JAK2, 0.005 nM; against JAK3, 0.18 nM; at TYK2, 0.3 nM.

As to `[2H]C([2H])([2H])C([2H])([2H])c1cc(O)c(F)cc1-c1ccc2c(-c3nc4c([nH]3)CN(C(=O)N(C)C)C4)n[nH]c2c1` [Compound 32], the IC50 at JAK1 is 0.025 nM; against JAK2 it was 0.032 nM; on JAK3, 0.2 nM; on TYK2, 0.3 nM.

Take `[2H]C([2H])([2H])c1cc(O)c(F)cc1-c1ccc2c(-c3nc4c([nH]3)CN(C(=O)NCCCO)C4)n[nH]c2c1` [Compound 7, 2-(6-(5-Fluoro-4-hydroxy-2-(methyl-d3)phenyl)-1H-indazol-3-yl)-N-(3-hydroxypropyl)-4,6-dihydropyrrolo[3,4-d]imidazole-5(1H)-carboxamide]: the IC50 was found to be 0.07 nM against JAK1, 0.014 nM at JAK2, 0.25 nM on JAK3 and 0.53 nM against TYK2.

As to `[2H]C([2H])([2H])c1cc(O)c(F)cc1-c1ccc2c(-c3nc4c([nH]3)CN(C(=O)N3CCOCC3)C4)n[nH]c2c1` [Compound 10], the IC50 was determined as 0.092 nM against JAK1, 0.0097 nM against JAK2, 0.3 nM at JAK3 and 0.37 nM against TYK2.

`[2H]C([2H])([2H])c1cc(O)c(F)cc1-c1ccc2c(-c3nc4c([nH]3)CN(C(=O)N3CC[C@H](O)C3)C4)n[nH]c2c1` [Compound 6, (S)-(2-(6-(5-Fluoro-4-hydroxy-2-(methyl-d3)phenyl)-1H-indazol-3-yl)-4,6-dihydropyrrolo[3,4-d]imidazole-5(1H)-yl)(3-hydroxypyrrolidin-1-yl)ketone]: the IC50 stood at 0.086 nM against JAK1, 0.013 nM against JAK2, 0.19 nM against JAK3 and 0.32 nM on TYK2.

With `[2H]C([2H])([2H])c1cc(O)c(F)cc1-c1ccc2c(-c3nc4c([nH]3)CN(C(=O)C3CC3)C4)n[nH]c2c1` [Compound 2, Cyclopropyl (2-(6-(5-fluoro-4-hydroxy-2-(methyl-d3)phenyl)-1H-indazol-3-yl)-4,6-dihydropyrrolo[3,4-d]imidazol-5(1H)-yl) ketone], the IC50 on JAK1 was found to be 0.19 nM; against JAK2, 0.017 nM; against JAK3, 0.28 nM; on TYK2, 1.2 nM.

For `[2H]C([2H])([2H])c1cc(O)c(F)cc1-c1ccc2c(-c3nc4c([nH]3)CN(C(=O)NC[C@@H](C)O)C4)n[nH]c2c1` [Compound 1, (R)-2-(6-(5-Fluoro-4-hydroxy-2-(methyl-d3)phenyl)-1H-indazol-3-yl)-N-(2-hydroxypropyl)-4,6-dihydropyrrolo[3,4-d]imidazole-5(1H)-carboxamide], the IC50 at JAK1 worked out at 0.096 nM; against JAK2, 0.013 nM; against JAK3 it was 0.2 nM; against TYK2, 0.8 nM.

With `[2H]C([2H])([2H])C([2H])([2H])c1cc(O)c(F)cc1-c1ccc2c(-c3nc4c([nH]3)CN(C(=O)N3CC[C@H](O)C3)C4)n[nH]c2c1` [Compound 3, (S)-(2-(6-(2-(Ethyl-d5)-5-fluoro-4-hydroxyphenyl)-1H-indazol-3-yl)-4,6-dihydropyrrolo[3,4-d]imidazol-5(1H)-yl) (3-hydroxypyrrolidin-1-yl) ketone methanesulfonate], the IC50 against JAK1 amounted to 0.0072 nM; at JAK2, 0.015 nM; against JAK3, 0.044 nM; against TYK2 it was 0.022 nM.

(Values after US20260166012A1 (MEDINNO PHARMACEUTICAL TECHNOLOGY (ZHUHAI) CO., LTD., priority 2023, published 2026).)
